Measured values as given in patent publication US11377444B2, “Pyridopyrimidine compounds acting as mTORC 1/2 dual inhibitors” (MEDSHINE DISCOVERY INC., priority 2017, dated 2022).
Where two headings read alike, the source gives them in different places.

Experiments:
[1] = target: T1, mTOR kinase (mTORC1 and mTORC2 kinase complex) (Homo sapiens, UniProt P42345); assay: In vitro evaluation of mTOR kinase inhibitory activity (DiscoverX ligand-bead competition binding, qPCR readout)
T1 construct: purchased DiscoverX; host or cells: HEK-293
Protocol: Experimental Embodiment 1: In Vitro Evaluation of mTOR Kinase Inhibitory Activity This experiment was performed by DiscoverX. All materials and methods were obtained from DiscoverX.
Kinase activity analysis.
1. Labeled mTOR kinase was stably expressed in HEK-293 cells.
2. Streptavidin magnetic beads were treated with biotinylated small molecule ligands at room temperature for 30 minutes to produce affinity resin for kinase analysis;
3. Ligand beads were blocked with excess biotin and washed with buffer (1% bovine serum albumin, […]) to remove unbound ligand and non-specifically bound ligand;
4. The assembly of kinase and ligand and affinity beads, and the binding reaction between the compound and the three were performed in buffer (20% blocking buffer, 0.17x phosphate buffer, 0.05% Tween […]);
5. The test compounds were dissolved in dimethyl sulfoxide;
6. All test compounds were dissolved in DMSO, and then directly diluted […]
7. The solution was placed in a 384-well polypropylene plate, wherein the volume of each well was 0.02 mL;
8. The plate was shaked for an hour at room temperature;
9. The plate was washed with buffer (1× PBS, 0.05% Tween 20);
10. The affinity beads were resuspended in buffer (1× PBS, 0.05% Tween […] non-biotin affinity ligand) and incubated at room temperature for 30 minutes;
11. The kinase concentration in the eluate was deteced by qPCR.

[2] = Pharmacokinetic evaluation in plasma after IV and PO administration; assay type: in vivo; settings: female Balb/c mice; for AUC(0-inf) / AUC(0-t) / C0 / clearance / half-life / MRT inf / MRT last / Vd / Cmax / Tmax / bioavailability: mouse; for MRT inf: read-out: MRT0-inf; for MRT last: read-out: MRT0-last; for Vd: read-out: Vdss
Protocol: Experimental Embodiment 3: Pharmacokinetic Evaluation
The test compound was mixed with […] (Cremophor EL), vortexed and sonicated to prepare a 1 mg/mL near-clear solution, which was filtered with a microporous filter membrane for future use. Female Balb/c mice of 18 to 20 grams were selected and the solution of the test compound was administered intravenously at a dose of 1 or 2 mg/kg. The test compound was mixed with an aqueous solution of 1% Tween 80, 9% polyethylene glycol 400, and 90% water, vortexed and sonicated to prepare 1 mg/mL near-clear solution, which was filtered with a microporous filter membrane for future use.
Female Balb/c mice of 18 to 20 grams were selected, and the solution of the test compound was orally administered at a dose of 2 or 10 mg/kg. The whole blood was collected at a certain time, and prepared into plasma. The drug concentration was analyzed by LC-MS/MS, and the pharmacokinetic parameters were calculated using Phoenix WinNonlin software (Pharsight Corporation, USA).

[3] = test system: N87 cell; assay: Cell proliferation inhibitory activity (Cell-Titer-Glo), N87; assay type: cell-based; settings: 72 h; 3 days incubation
Excerpt: (§1) Experimental Embodiment 2: Evaluation of Cell Proliferation Inhibitory Activity
(§2) Experiment objective: To detect cell proliferation inhibitory activity of the tested compounds.
(§3) Experimental principle: The luciferase in the Cell-Titer-Glo reagent produces oxyluciferin using luciferin, oxygen and ATP as reaction substrates, and releases energy in the form of light. Since the reaction of luciferase requires ATP, the total amount of light generated by the reaction is proportional to the total amount of ATP that reflects cell viability.
(§4) Cell lines: MCF-7 cell line […], HT-29 cell line (ATCC-HTB-38), OE21 (ECACC-96062201), NCI-N87 cell line (ATCC-CRL-5822)
(§5) Cell culture medium: (RPMI 1640 culture medium (Invitrogen #1868546; 10% serum Invitrogen #1804958; L-glutamine 1×, Invitrogen #1830863; dual antibiotic Hyclone #J170012))
(§6) Cell Titer-Glo® Luminescent Cell Viability Assay Kit (Promega #G7573)
(§7) The cells were inoculated in a 384- or 96-well plate with a density of 1000 cells per well and 25 μL per well according to the instructions of the cell inoculating plate. The edge wells were not inoculated with cells, and was supplemented with […].
(§8) (i) The mother solution of the compound was 10 mM, and diluted with DMSO to an initial concentration of 4 mM. The compound was added to the compound mother solution, 9 μL per well.
(§9) (ii) The compound was diluted with ECHO liquid-handling workstation. Each well of the cell plate was added with 125 nL compound. Each well of the cell wells in 2nd column and 23rd column was added with 125 nL DMSO, and each of the PBS wells in 1st column and 24th column was added with 125 nL DMSO.
(§10) (iii) Each well of the cell plate was supplemented with 25 μL culture medium, the final volume in each well of the cell plate was 50 μL, […] 3 times dilution, 10 concentrations, each concentration was duplicated in left and right wells, the final DMSO concentration was 0.25%.
(§11) 2.3. After addition of the compound, centrifugation was performed at 1000 rpm for 1 min, and the cell plate was placed in a 37° C., 5% CO2 incubator for 3 days.
(§12) The cell plate was taken out from the incubator and equilibrated at room temperature for 30 minutes. 25 μL Cell-Titer-Glo reagent was added to each well, shaken for one minute to mix thoroughly, centrifuged at 1000 rpm for 1 minute. After 10 minutes, the plate was read on PerkinElmer Envision with a […] reading time was set at 0.2 second.

[4] = test system: MCF-7 cell; assay: Cell proliferation inhibitory activity (Cell-Titer-Glo), MCF-7; assay type: cell-based; settings: Homo sapiens, MCF7, 72 h; 3 days incubation
Excerpt: as §1, §2, §3, §4, §5, §6, §7, §8, §9, §10, §11, §12

[5] = test system: human breast cancer MCF-7 cell subcutaneous xenograft tumor; assay: In vivo pharmacodynamic study, MCF-7 subcutaneous xenograft tumor; set-up: species or system BALB/c nude mouse; settings: 15 mg/kg
Excerpt: Experimental Embodiment 4: In Vivo Pharmacodynamic Study on BALB/c Nude Mouse Model of Human Breast Cancer MCF-7 Cell Subcutaneous Xenograft Tumor
Experimental objective: To study the efficacy of the test compounds on human breast cancer MCF-7 cell subcutaneous xenograft tumor in BALB/c nude mouse model.
Experimental animals: Female BALB/c nude mice, 6-8 weeks old, weighing 18-22 grams; supplier: Shanghai Xipuer-Bikai Experimental Animal Co., Ltd.
Human breast cancer MCF-7 cells (ECACC, article number: 86012803) were subjected to in vitro monolayer culture under the conditions of EMEM (EBSS)+2 mM […]+1% Non Essential Amino Acids (NEAA) medium containing 10% fetal bovine serum, 100 U/mL penicillin and 100 μg/mL streptomycin, and 37° C., 5% CO2incubator. Conventional digestion treatment was carried out with trypsin-EDTA twice a week for cell passage. When the cell saturation was 80%-90%, and the quantity reached the requirement, the cells were collected, counted and inoculated.
Estrogen tablets (0.18 mg) were inoculated into the left back of each mouse three days before cell inoculation, 0.2 mL (1×10^7) MCF-7 cells (added with matrigel, volume ratio of 1:1) were subcutaneously inoculated into the right back of each mouse. When the average volume of tumor reached 142 mm^3, the mice were divided into groups and began to be administrated.
The test compounds were prepared into clear solutions of 0.75 mg/mL, 1.5 mg/mL and 3 mg/mL. The vehicles were 5% DMSO+30% polyethylene glycol 300+65% water.
The experimental indexes were used for investigating whether the growth of the tumors had been inhibited, delayed or cured. The diameters of the tumors were measured with vernier calipers twice a week. The calculation formula of the tumor volume was: V=0.5a×b^2, wherein a and b represent the long and short diameters of the tumor respectively.
The antitumor efficacy of the compound was evaluated by TGI (%) or relative tumor proliferation rate T/C (%). TGI (%) reflects the inhibition rate of the tumor growth. Calculation of TGI (%): TGI (%)=[1−(average tumor volume at the end of administration in the treatment group−average tumor volume at the beginning of administration in the treatment group)/(average tumor volume at the end of treatment in the vehicle control group−average tumor volume at the beginning of treatment in the vehicle control group)]×[…].
Relative tumor proliferation rate T/C (%): The calculation formula was as follows: T/C %=TRTV/CRTV at the beginning of the treatment (TRTV: treatment group RTV; CRTV: negative control group RTV). The relative tumor volume (RTV) was calculated according to the results of tumor measurement. The calculation formula was RTV=Vt/V0, wherein V0 is the average tumor volume measured during administration of the groups (i.e. d0), and Vt is the average tumor volume during a certain measurement, the TRTV and CRTV were taken on the same day.
Statistical analysis included the mean and standard error (SEM) of tumor volume at each time point in each group. […] The comparison between two groups was analyzed by T-test, and the comparison between three or more groups was analyzed by one-way ANOVA.

Kd [1] [nM] | AUCExtra ([2]; IV 1 mg/kg) [%] | AUMCExtra ([2]; IV 1 mg/kg) [%] | Tlast ([2]; IV 1 mg/kg) [h] | AUCExtra ([2]; PO 2 mg/kg) [%] | AUMCExtra ([2]; PO 2 mg/kg) [%] | Tlast ([2]; PO 2 mg/kg) [h] | AUC(0-inf) ([2]; IV 1 mg/kg) [µM·h] | AUC(0-t) ([2]; IV 1 mg/kg) [µM·h] | C0 ([2]; IV 1 mg/kg) [µM] | clearance ([2]; IV 1 mg/kg) [mL/min/kg] | half-life ([2]; IV 1 mg/kg) [h] | MRT inf ([2]; IV 1 mg/kg) [h] | MRT last ([2]; IV 1 mg/kg) [h] | Vd ([2]; IV 1 mg/kg) [L/kg] | AUC(0-inf) ([2]; PO 2 mg/kg) [µM·h] | AUC(0-t) ([2]; PO 2 mg/kg) [µM·h] | Cmax ([2]; PO 2 mg/kg) [µM] | Tmax ([2]; PO 2 mg/kg) [h] | SMILES | IC50 [3] [nM] | further results
0.4 | 0.246 | 1.59 | 12.0 | 1.84 | 8.59 | 8.00 | 7.4 | 7.38 | 2.49 | 5.07 | 1.38 | 2.16 | 2.13 | 0.657 | 8.75 | 8.59 | 3.49 | 0.25 | C[C@H]1COC2(CCC2)CN1c1nc(N2CCOC[C@@H]2C)c2ccc(-c3cccc(C(N)=O)c3)nc2n1 [Embodiment 35] | 44 | bioavailability ([2]; PO 2 mg/kg): 56.1%; half-life ([2]; PO 2 mg/kg): 1.33 h; MRT inf ([2]; PO 2 mg/kg): 2.13 h; MRT last ([2]; PO 2 mg/kg): 1.98 h; IC50 [4]: 105 nM
0.24 |  |  |  |  |  |  |  |  |  |  |  |  |  |  |  |  |  |  | C[C@H]1COCCN1c1nc(N2CCOC3(CCC3)C2)nc2nc(-c3cccc(C(N)=O)c3)ccc12 [Embodiment 44] | 89 | T/C [5]: 50.58%; TGI [5]: 65.23%; RTV (27th day) ([5]; 27th day): 2.11 ± 0.39; Tumor volume (27th day) ([5]; 27th day, mean ± SEM): 298 ± 55 mm^3; Tumor volume (day 0) ([5]; day 0, mean ± SEM): 143 ± 13 mm^3; IC50 [4]: 171 nM
 |  |  |  |  |  |  |  |  |  |  |  |  |  |  |  |  |  |  | COc1ccc(-c2ccc3c(N4CCOC[C@@H]4C)nc(N4CCOC5(CC5)C4)nc3n2)cc1CO [Embodiment 54] | 119 | 
 | 0.0522 | 0.540 | 12 | 0.0673 | 0.493 | 12.0 | 9.47 | 9.46 | 9.7 | 3.49 | 1.01 | 1.3 | 1.29 | 0.272 | 16.3 | 16.3 | 7.73 | 0.5 | CNC(=O)c1cc(-c2ccc3c(N4CCOC[C@@H]4C)nc(N4CCOC5(CC5)C4)nc3n2)ccc1OC [Embodiment 55] | 120 | bioavailability ([2]; PO 2 mg/kg): 86.1%; half-life ([2]; PO 2 mg/kg): 1.15 h; MRT inf ([2]; PO 2 mg/kg): 1.86 h; MRT last ([2]; PO 2 mg/kg): 1.86 h
 |  |  |  |  |  |  |  |  |  |  |  |  |  |  |  |  |  |  | COc1ccc(-c2ccc3c(N4CCOC[C@@H]4C)nc(N4CCOC5(CC5)C4)nc3n2)cc1C(N)=O [Embodiment 56] | 167 | 
